Test system: patients with advanced solid tumors
Experiment: First-in-human phase 1 dose-escalation study: safety, DLTs, adverse events
Assay type: in vivo
From the text: This multicenter first-in-human dose-escalation phase 1 study (clinicaltrials.gov identifier: NCT03272256) was designed to determine the MTD or RP2D and to evaluate the safety and tolerability of IM156. Secondary endpoints included PK characteristics, efficacy assessment (objective response rate [ORR], disease control rate [DCR], duration of response [DoR] and progression-free survival [PFS]). Furthermore, exploratory objectives included identification and profiling of IM156 metabolites, evaluations of exploratory PD markers of IM156, and evaluations of any potential relationship between putative biomarkers and safety/efficacy parameters of IM156. The study was conducted in accordance with Good Clinical Practice, the International Council for Harmonisation, and guidelines governing clinical study conduct and the ethical principles originating from the Declaration of Helsinki. The study was approved by each Institutional Review Board and patients provided written informed consent. Patients were enrolled at three sites in South Korea.
The initial dose and schedule of IM156 was chosen based on animal toxicology studies. […] IM156 was administered in the fasted state, with no food for at least 2 h before and 1 h after dosing.
Three DLT-evaluable patients were enrolled at each dose level. If there were no DLTs or other prohibitive adverse events (AEs), the Safety Committee was allowed to recommend escalation to the next highest dose level. If 1 DLT occurred in the first 3 DLT-evaluable patients, enrollment in that cohort was expanded to an additional 3 DLT-evaluable patients; if ≥ 2 DLTs were reported in a cohort, that dose was considered above the MTD.
Safety was assessed through vital signs, weight, laboratory assessments, physical examinations, electrocardiogram, and reporting of AEs as graded by the National Cancer Institute’s Common Terminology Criteria for Adverse Events v4.03 (NCI-CTCAE).
DLTs were defined as the following AEs if they were attributed as related to IM156: asymptomatic grade 4 neutropenia lasting for ≥ 5 days; febrile neutropenia, regardless of grade; grade 4 thrombocytopenia or grade 3 thrombocytopenia with bleeding; any grade ≥ 3 non-hematologic AE (except grade 3 hypertension and grade 3 nausea, vomiting or diarrhea for which proper measures for prevention and treatment were not implemented, and alopecia); blood lactate levels > 5 mmol; grade ≥ 2 AE prohibiting dosing of IM156 for ≥ 21 continuous days except for alterations in serum calcium or phosphorus levels. The safety analysis includes all patients who received at least one dose of study drug.
The safety population was defined as all patients who received at least one dose of IM156. The PK population was not defined in the protocol but included all patients with sufficient PK data to perform adequate PK modeling. The efficacy population included all patients who underwent at least one tumor imaging assessment while receiving IM156. Safety was assessed using descriptive statistics (e.g., DLTs, AEs, laboratory tests, physical examination, 12-lead ECG). The incidence and number of events were reported for the DLTs observed in Cycle 1 per dose group. […] Adverse events and TRAEs were standardized with the System Organ Class and the Preferred Term using the Medical Dictionary for Regulatory Activities v23.0. In addition, TEAEs, serious adverse events (SAEs), TEAE severity, and TEAEs leading to withdrawal were presented by dose group. Efficacy data were to be presented by Waterfall and Swim Lane plots. Time to event endpoints (e.g., DoR, PFS) were determined using Kaplan–Meier estimations with the median value for each endpoint summarized.

[1] = all dose level/grade cells not in own entries

NC(=Nc1ccc(OC(F)(F)F)cc1)N=C(N)N1CCCC1 [IM156]
TEAE Diarrhoea, grade 2 (Total, all dose levels): 3
TEAE Dysesthesia, grade 1 (Total, all dose levels): 1
TEAE Fatigue, grade 1 (Total, all dose levels): 2
TEAE Fatigue, grade 2 (Total, all dose levels): 4
TEAE Gamma-glutamyltransferase increased, grade 2 (Total, all dose levels): 1
TEAE Gamma-glutamyltransferase increased, grade 3 (Total, all dose levels): 1
TEAE Gastritis, grade 1 (Total, all dose levels): 1
TEAE Gastrointestinal pain, grade 1 (Total, all dose levels): 1
TEAE Gastrointestinal pain, grade 2 (Total, all dose levels): 1
TEAE Headache, grade 1 (Total, all dose levels): 1
TEAE Headache, grade 2 (Total, all dose levels): 1
TEAE Hemoptysis, grade 2 (Total, all dose levels): 1
TEAE Hyperkalaemia, grade 3 (Total, all dose levels): 1
TEAE Hypoalbuminaemia, grade 2 (Total, all dose levels): 2
TEAE Hypocalcemia, grade 2 (Total, all dose levels): 1
TEAE Ileus, grade 2 (Total, all dose levels): 1
TEAE Ileus, grade 3 (Total, all dose levels): 1
TEAE Influenza like illness, grade 1 (Total, all dose levels): 1
TEAE Large intestinal obstruction, grade 2 (Total, all dose levels): 1
TEAE Lethargy, grade 2 (Total, all dose levels): 1
TEAE Nausea, grade 1 (Total, all dose levels): 8
TEAE Nausea, grade 2 (Total, all dose levels): 5
TEAE Nausea, grade 3 (Total, all dose levels): 3
TEAE Neutrophil count decreased, grade 4 (Total, all dose levels): 1
TEAE Obstruction gastric, grade 3 (Total, all dose levels): 1
TEAE Oedema peripheral, grade 2 (Total, all dose levels): 1
TEAE Oropharyngeal pain, grade 1 (Total, all dose levels): 1
TEAE Pain, grade 2 (Total, all dose levels): 1
TEAE Peripheral sensory neuropathy, grade 1 (Total, all dose levels): 1
TEAE Platelet count decreased, grade 1 (Total, all dose levels): 1
TEAE Pleural effusion, grade 2 (Total, all dose levels): 1
TEAE Proctalgia, grade 2 (Total, all dose levels): 1
TEAE Pyrexia, grade 1 (Total, all dose levels): 5
TEAE Pyrexia, grade 2 (Total, all dose levels): 1
TEAE Toothache, grade 1 (Total, all dose levels): 1
TEAE Vomiting, grade 1 (Total, all dose levels): 10
TEAE Vomiting, grade 2 (Total, all dose levels): 1
TEAE Abdominal discomfort, dose level/grade cells without event [1]: 0
TEAE Abdominal distension, dose level/grade cells without event [1]: 0
TEAE Abdominal pain upper, dose level/grade cells without event [1]: 0
TEAE Abdominal pain, dose level/grade cells without event [1]: 0
TEAE Akathisia, dose level/grade cells without event [1]: 0
TEAE Alanine aminotransferase increased, dose level/grade cells without event [1]: 0
TEAE Ascites, dose level/grade cells without event [1]: 0
TEAE Aspartate aminotransferase increased, dose level/grade cells without event [1]: 0
TEAE Asthenia, dose level/grade cells without event [1]: 0
TEAE Blood alkaline phosphatase increased, dose level/grade cells without event [1]: 0
TEAE Blood creatinine increased, dose level/grade cells without event [1]: 0
TEAE Blood lactic acid increased, dose level/grade cells without event [1]: 0
TEAE Chest pain, dose level/grade cells without event [1]: 0
TEAE Constipation, dose level/grade cells without event [1]: 0
TEAE Cough, dose level/grade cells without event [1]: 0
TEAE Decreased appetite, dose level/grade cells without event [1]: 0
TEAE Diarrhoea, dose level/grade cells without event [1]: 0
TEAE Dysesthesia, dose level/grade cells without event [1]: 0
TEAE Fatigue, dose level/grade cells without event [1]: 0
TEAE Gamma-glutamyltransferase increased, dose level/grade cells without event [1]: 0
TEAE Gastritis, dose level/grade cells without event [1]: 0
TEAE Gastrointestinal pain, dose level/grade cells without event [1]: 0
TEAE Headache, dose level/grade cells without event [1]: 0
TEAE Hemoptysis, dose level/grade cells without event [1]: 0
TEAE Hyperkalaemia, dose level/grade cells without event [1]: 0
TEAE Hypoalbuminaemia, dose level/grade cells without event [1]: 0
TEAE Hypocalcemia, dose level/grade cells without event [1]: 0
TEAE Ileus, dose level/grade cells without event [1]: 0
TEAE Influenza like illness, dose level/grade cells without event [1]: 0
TEAE Large intestinal obstruction, dose level/grade cells without event [1]: 0
TEAE Lethargy, dose level/grade cells without event [1]: 0
TEAE Nausea, dose level/grade cells without event [1]: 0
TEAE Neutrophil count decreased, dose level/grade cells without event [1]: 0
TEAE Obstruction gastric, dose level/grade cells without event [1]: 0
TEAE Oedema peripheral, dose level/grade cells without event [1]: 0
TEAE Oropharyngeal pain, dose level/grade cells without event [1]: 0
TEAE Pain, dose level/grade cells without event [1]: 0
TEAE Peripheral sensory neuropathy, dose level/grade cells without event [1]: 0
TEAE Platelet count decreased, dose level/grade cells without event [1]: 0
TEAE Pleural effusion, dose level/grade cells without event [1]: 0
TEAE Proctalgia, dose level/grade cells without event [1]: 0
TEAE Pyrexia, dose level/grade cells without event [1]: 0
TEAE Toothache, dose level/grade cells without event [1]: 0
TEAE Vomiting, dose level/grade cells without event [1]: 0
days of interruption due to a TEAE, range (all doses): 2 to 11 days
median number of days of interruption due to a TEAE (all doses): 3 days
number of SAEs reported (all doses): Nine
number of laboratory AEs (all doses): 28
Grade 3 nausea (TRAE), percent of patients (all doses, N = 22): 14%
TRAE abdominal pain, percent of patients (all doses, N = 22): 9%
TRAE constipation, percent of patients (all doses, N = 22): 9%
TRAE diarrhea, percent of patients (all doses, N = 22): 46%
TRAE emesis (vomiting), percent of patients (all doses, N = 22): 41%
TRAE fatigue, percent of patients (all doses, N = 22): 18%
TRAE nausea, percent of patients (all doses, N = 22): 68%
TRAEs grade 3 or higher, percent of patients (all doses, N = 22): 14%
patients in whom nausea and emesis required anti-emetic medications (all doses, N = 22): 14 patients
patients in whom nausea and emesis required anti-emetic medications, percent (all doses, N = 22): 64%
patients with SAEs (all doses, N = 22): 8 patients
patients with TRAEs (all doses, N = 22): 19 patients
patients with TRAEs, percent (all doses, N = 22): 86%
patients with a TEAE leading to dose interruption (all doses, N = 22): 7 patients
patients with a TEAE leading to dose interruption, percent (all doses, N = 22): 32%
patients with at least one TEAE (all doses, N = 22): 22 patients
patients with at least one TEAE, percent (all doses, N = 22): 100%
patients with gastrointestinal (GI) TRAEs (all doses, N = 22): 18 patients
patients with gastrointestinal (GI) TRAEs, percent (all doses, N = 22): 82%
total number of TEAEs reported (all doses, N = 22): 146
TRAE blood lactate (lactic acid) increased, percent of patients (all doses, N = 22, Grade 1): 9%
Dose-limiting toxicity (dose level 1, 100 mg QOD oral, 3 patients): 0
Dose-limiting toxicity (dose level 2, 200 mg QOD oral, 3 patients): 0
Dose-limiting toxicity (dose level 3, 400 mg QOD oral, 3 patients): 0
Dose-limiting toxicity (dose level 4, 800 mg QOD oral, 3 patients): 0
Dose-limiting toxicity (dose level 5, 1,200 mg QOD oral, 3 patients): 0
Dose-limiting toxicity (dose level 6, 800 mg QD oral, 3 patients): 0
Dose-limiting toxicity (dose level 7, 1,200 mg QD oral, 4 patients): 0
SAEs attributed to IM156 (grade 3 nausea at 1,200 mg QOD): 1
laboratory AEs considered not related to IM156 (of 28 laboratory AEs): 26
laboratory AEs considered not related to IM156, percent (of 28 laboratory AEs): 93%
recommended phase 2 dose (RP2D) (oral, QD): 800 mg
maximum tolerated dose (MTD) (per protocol, 100 to 1,200 mg QOD or QD): not reached

Source: publication PMC9395488, “First-in-human study of IM156, a novel potent biguanide oxidative phosphorylation (OXPHOS) inhibitor, in patients with advanced solid tumors” (Investigational New Drugs, 2022)
